Results as given in US11629133B2, “Perfluoroaminoolefins and methods of making and using the same” (3M INNOVATIVE PROPERTIES COMPANY, priority 2018, dated 2023).

What was measured:
Assay type in all cases: physicochemical
[1] = Pour point, determined visually; details: lowest temperature at which sample flows within 5 sec held horizontally
Protocol: […] of the sample was placed in a vial and cooled in a liquid nitrogen-cooled pentane bath until it solidified. The sample was then allowed to warm slowly in the pentane bath by removal of the liquid nitrogen cooling source (typically an increase of 1-2° C./minute) and observed every 3-5° C.

[2] = Thermal stability of PE-1 with absorbents, purity by GC-FID
Protocol: GC-FID analysis was carried out on an Agilent Technologies 7890B GC System (Santa Clara Calif.) equipped with a Restek RtX-200 gas chromatography column (Bellefonte, Pa.) and helium carrier gas. Once material was injected into the column, the following temperature sequence was executed: 5 min hold at 40° C., 10° C./minute temperature increase over the span of 21 min to reach a final temperature of 250° C., and then a 15 min hold at 250° C. Data analysis by use of Agilent Open LAB CDSA ChemStation software enabled the determination of product purities and GC yields.
Thermal stability was measured by charging 1.0 g of PE-1 into glass vials and then adding a weighed amount of absorbent. The samples were stirred for 24 hours at 60° C., allowed to cool, and then analyzed by GC-FID for decomposition and purity changes.

[3] = Dielectric constant per ASTM D150-11; details: measured at 1 kHz
Protocol: The dielectric constant (tested per ASTM D150-11) of PE-1 was measured. The dielectric constant measured at 1 kHz was 1.98.

2,2,3,3,4,4,5,5-octafluoro-1-(perfluoropent-2-en-3-yl)pyrrolidine and 2,2,3,3,4,4,5,5-octafluoro-1-(perfluoropent-2-en-2-yl)pyrrolidine [PE-4]
Pour point [1]: −90 °C

FC1=C(N2C(F)(F)C(F)(F)C(F)(F)C2(F)F)C(F)(F)C(F)(F)C1(F)F [PE-2, 2,2,3,3,4,4,5,5-octafluoro-1-(perfluorocyclopent-1-en-1-yl)pyrrolidine]
Pour point [1]: −33 °C

FC1=C(N2C(F)(F)C(F)(F)C(F)(F)C2(F)F)C(F)(F)C(F)(F)C(F)(F)C1(F)F [PE-1, 2,2,3,3,4,4,5,5-octafluoro-1-(perfluorocyclohex-1-en-1-yl)pyrrolidine]
Purity, % ([2]; 4 Angstrom Molecular Sieves, stirred 24 hours at 60° C.): 97.3%
Purity, % ([2]; Activated Carbon, stirred 24 hours at 60° C.): 97.7%
Purity, % ([2]; Basic Alumina, stirred 24 hours at 60° C.): 97.6%
Purity, % ([2]; K2CO3, stirred 24 hours at 60° C.): 97.6%
Purity, % ([2]; No Absorbent, stirred 24 hours at 60° C.): 97.7%
Purity, % ([2]; Silica Gel, stirred 24 hours at 60° C.): 97.7%
Pour point [1]: −34 °C
dielectric constant [3]: 1.98

FC1=C(N2C(F)(F)C(F)(F)OC(F)(F)C2(F)F)C(F)(F)C(F)(F)C1(F)F [PE-3, 2,2,3,3,5,5,6,6-octafluoro-4-(perfluorocyclopent-1-en-1-yl)morpholine]
Pour point [1]: −49 °C
